US4777182A, “6-Amidino-2-naphthyl 4-guanidinobenzoate derivatives and pharmaceutical composition containing them” (Torii & Co., Ltd., priority 1984, dated 1988)

How the values were obtained:
Kallikrein = experiment: Anti-kallikrein activity (inhibition of TAME hydrolysis); assay type: biochemical; conditions: read-out: ID50, Kallikrein
Trypsin = target: T1, Trypsin (Bos taurus, UniProt P00760); experiment: Anti-trypsin activity (inhibition of TAME hydrolysis); assay type: biochemical; conditions: read-out: ID50, Trypsin
T1 sequence (P00760 24-246): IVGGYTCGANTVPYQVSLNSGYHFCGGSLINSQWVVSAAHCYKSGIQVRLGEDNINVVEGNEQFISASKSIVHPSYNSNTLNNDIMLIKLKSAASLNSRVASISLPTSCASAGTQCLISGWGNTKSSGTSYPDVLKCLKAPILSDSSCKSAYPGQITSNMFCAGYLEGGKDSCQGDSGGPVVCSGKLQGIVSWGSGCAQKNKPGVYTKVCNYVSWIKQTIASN

Plasmin = Plasmin (Homo sapiens, UniProt P00747); experiment: Anti-plasmin activity (inhibition of TAME hydrolysis); assay type: biochemical; conditions: TAME hydrolysis; read-out: ID50, Plasmin
Chain of Plasmin (P00747 97-580 limits assumed, species assumed): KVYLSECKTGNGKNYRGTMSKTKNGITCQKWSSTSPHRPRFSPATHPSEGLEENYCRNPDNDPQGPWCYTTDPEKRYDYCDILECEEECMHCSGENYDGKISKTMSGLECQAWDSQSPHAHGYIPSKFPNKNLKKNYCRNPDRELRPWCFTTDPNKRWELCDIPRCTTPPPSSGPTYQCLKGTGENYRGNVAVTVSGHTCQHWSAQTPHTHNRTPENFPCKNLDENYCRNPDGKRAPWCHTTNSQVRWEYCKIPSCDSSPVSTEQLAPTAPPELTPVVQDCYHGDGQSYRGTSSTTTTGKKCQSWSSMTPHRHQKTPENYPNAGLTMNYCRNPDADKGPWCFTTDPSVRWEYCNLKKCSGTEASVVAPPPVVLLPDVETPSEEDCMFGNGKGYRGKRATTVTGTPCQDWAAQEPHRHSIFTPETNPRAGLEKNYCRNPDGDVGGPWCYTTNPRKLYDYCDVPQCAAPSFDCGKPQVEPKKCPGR
Chain of Plasmin (P00747 581-810 limits assumed, species assumed): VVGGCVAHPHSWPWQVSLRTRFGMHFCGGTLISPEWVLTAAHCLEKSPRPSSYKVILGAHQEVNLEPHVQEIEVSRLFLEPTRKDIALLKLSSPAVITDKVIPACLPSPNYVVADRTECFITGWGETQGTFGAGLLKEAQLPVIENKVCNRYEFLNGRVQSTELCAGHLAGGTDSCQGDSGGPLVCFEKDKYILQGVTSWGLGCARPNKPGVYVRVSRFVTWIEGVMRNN

C1s = target: T2, C1s (Homo sapiens, UniProt P09871); experiment: Anti-C1s activity (inhibition of ATEE hydrolysis); assay type: biochemical; conditions: read-out: ID50, C1s
T2 sequence (P09871 16-437 limits assumed): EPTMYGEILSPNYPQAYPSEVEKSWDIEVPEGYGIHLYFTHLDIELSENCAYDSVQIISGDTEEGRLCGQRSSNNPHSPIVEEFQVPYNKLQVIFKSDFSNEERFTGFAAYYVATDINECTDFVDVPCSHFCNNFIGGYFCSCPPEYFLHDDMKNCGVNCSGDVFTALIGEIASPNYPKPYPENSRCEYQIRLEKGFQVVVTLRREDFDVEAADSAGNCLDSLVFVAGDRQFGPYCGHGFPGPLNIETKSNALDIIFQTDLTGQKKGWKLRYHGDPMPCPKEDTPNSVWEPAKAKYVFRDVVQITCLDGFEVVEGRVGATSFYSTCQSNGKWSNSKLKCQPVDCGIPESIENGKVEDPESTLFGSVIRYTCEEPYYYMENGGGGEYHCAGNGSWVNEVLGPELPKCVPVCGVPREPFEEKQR
T2 sequence (P09871 438-688 limits assumed): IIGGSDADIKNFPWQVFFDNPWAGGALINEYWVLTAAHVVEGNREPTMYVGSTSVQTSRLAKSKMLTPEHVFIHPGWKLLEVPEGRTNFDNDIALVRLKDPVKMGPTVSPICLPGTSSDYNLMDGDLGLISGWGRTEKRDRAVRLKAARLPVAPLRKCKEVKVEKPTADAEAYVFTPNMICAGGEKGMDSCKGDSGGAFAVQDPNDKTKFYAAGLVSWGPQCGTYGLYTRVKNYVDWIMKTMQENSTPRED
Method: (§1) The anti-C1 esterase (C1r, C1s) activity was determined according to the method of Okamura et al. [K. Okamura, M. Muramatsu and B. Fujii, Biochem. Biophys. Acta, 295, 252-257 (1973)]. (2) The inhibition of complement mediated hemolysis was determined according to the method of Baker et al. [B. R. Baker and E. H. Erickson, J. Med. Chem., 12, 408-414 (1969)]. The figures in Table 2 have the following meanings:
C1s: Molar concentration of the test compound which inhibits 50% of the ability of C1s to hydrolyse ATEE (acetyltyrosin ethyl ester) (ID50).

C1r = target: T3, C1r (Homo sapiens, UniProt P00736); experiment: Anti-C1r activity (inhibition of AAME hydrolysis); assay type: biochemical; conditions: for inhibition at 10 µM: at 1×10^-5 M, read-out: percent inhibition, C1r (figure in parentheses); for IC50: AAME hydrolysis, read-out: ID50, C1r
T3 sequence (P00736 18-463 limits assumed): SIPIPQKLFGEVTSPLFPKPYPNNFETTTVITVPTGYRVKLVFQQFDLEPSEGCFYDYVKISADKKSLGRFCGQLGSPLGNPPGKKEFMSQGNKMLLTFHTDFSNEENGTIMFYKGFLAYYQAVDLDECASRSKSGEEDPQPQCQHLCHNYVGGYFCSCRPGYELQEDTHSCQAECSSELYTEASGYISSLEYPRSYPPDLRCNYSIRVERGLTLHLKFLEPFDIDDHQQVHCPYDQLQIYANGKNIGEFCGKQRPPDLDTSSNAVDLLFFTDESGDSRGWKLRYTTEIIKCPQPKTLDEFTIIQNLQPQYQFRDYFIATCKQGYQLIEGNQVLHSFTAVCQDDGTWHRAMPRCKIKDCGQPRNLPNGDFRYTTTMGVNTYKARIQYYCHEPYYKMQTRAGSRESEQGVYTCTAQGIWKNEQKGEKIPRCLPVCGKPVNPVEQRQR
T3 sequence (P00736 464-705 limits assumed): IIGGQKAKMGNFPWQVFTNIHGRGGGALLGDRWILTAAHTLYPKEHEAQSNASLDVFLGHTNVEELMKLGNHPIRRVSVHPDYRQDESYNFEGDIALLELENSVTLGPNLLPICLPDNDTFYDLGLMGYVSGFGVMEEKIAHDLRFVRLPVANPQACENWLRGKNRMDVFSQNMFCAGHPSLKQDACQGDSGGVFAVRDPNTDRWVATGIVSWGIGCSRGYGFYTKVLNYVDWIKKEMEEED
Method: as §1, with “meanings: C1r: […]” for “meanings:”

Thrombin = Thrombin (Homo sapiens, UniProt P00734); experiment: biochemical; conditions: for IC50: TAME hydrolysis, read-out: ID50, Thrombin
[1] = test system: complement mediated hemolysis; experiment: Inhibition of complement mediated hemolysis; assay type: cell-based
From the text: Therefore, when a known amount of complement admixed with a C1 esterase inhibitor is used, the hemolysis must be suppressed in proportion to the inhibitory activity.

In the case of `CN1CCNC1=Nc1ccc(C(=O)Oc2ccc3cc(C(=N)N)ccc3c2)cc1` [compound 3], the IC50 (Kallikrein) is reported as 600 nM, the IC50 (Trypsin) is reported as 300 nM and the IC50 (Plasmin) is reported as 1000 nM. For the same compound, the IC50 (C1s) was 300 nM, the inhibition at 10 µM (C1r) was 38% and the IC50 (Thrombin) was 800 nM. For the same compound, the “Inhibition of complement mediated hemolysis (%)” value (shortened to “Inhibition … (%)”) ([1]; 1 × 10^-5) was 93%, the “Inhibition … (%)” value ([1]; 1 × 10^-6) was 25% and the “Inhibition … (%)” value ([1]; 1 × 10^-7) was 0%.

Work on `CC1CNC(Nc2ccc(C(=O)Oc3ccc4cc(C(=N)N)ccc4c3)cc2)=N1` (stereo not shown) [compound 4] yielded an IC50 (Kallikrein) of 400 nM, an IC50 (Trypsin) of 3000 nM and an IC50 (Plasmin) of 1000 nM. For the same compound, the IC50 (C1s) was 400 nM, the IC50 (C1r) was 10000 nM and the IC50 (Thrombin) was 2000 nM. The “Inhibition … (%)” value ([1]; 1 × 10^-5) was 100%, the “Inhibition … (%)” value ([1]; 1 × 10^-6) was 96% and the “Inhibition … (%)” value ([1]; 1 × 10^-7) was 48%.

Compound `N=C(NCCOCc1ccccc1)Nc1ccc(C(=O)Oc2ccc3cc(C(=N)N)ccc3c2)cc1` [compound 18] has an IC50 (Kallikrein) of 2000 nM, an IC50 (Trypsin) of 2000 nM and an IC50 (Plasmin) of 600 nM. The IC50 (C1s) was 2000 nM, the inhibition at 10 µM (C1r) was 37% and the IC50 (Thrombin) was 5000 nM. The “Inhibition … (%)” value ([1]; 1 × 10^-5) was 100%, the “Inhibition … (%)” value ([1]; 1 × 10^-6) was 100% and the “Inhibition … (%)” value ([1]; 1 × 10^-7) was 46%.

Compound `CNC(=N)Nc1ccc(C(=O)Oc2ccc3cc(C(=N)N)ccc3c2)cc1` [compound 8] has an IC50 (Kallikrein) of 3000 nM, an IC50 (Trypsin) of 4000 nM and an IC50 (Plasmin) of 3000 nM. It also gave an IC50 (C1s) of 2000 nM, an inhibition at 10 µM (C1r) of 47% and an IC50 (Thrombin) of 60 nM. The “Inhibition … (%)” value ([1]; 1 × 10^-5) was 100%, the “Inhibition … (%)” value ([1]; 1 × 10^-6) was 93% and the “Inhibition … (%)” value ([1]; 1 × 10^-7) was 34%.

With `CCN=C(NCC)Nc1ccc(C(=O)Oc2ccc3cc(C(=N)N)ccc3c2)cc1` [compound 12] the IC50 (C1s) was 80 nM, the inhibition at 10 µM (C1r) was 24% and the “Inhibition … (%)” value ([1]; 1 × 10^-5) was 100%. The “Inhibition … (%)” value ([1]; 1 × 10^-6) was 59% and the “Inhibition … (%)” value ([1]; 1 × 10^-7) was 0%.

In the case of `N=C(N)c1ccc2cc(OC(=O)c3ccc(NC4=NC5CCCCC5N4)cc3)ccc2c1` (stereo not shown) [compound 6], the IC50 (Kallikrein) is reported as 900 nM, the IC50 (Trypsin) is reported as 2000 nM and the IC50 (Plasmin) is reported as 3000 nM. It also gave an IC50 (C1s) of 400 nM, an IC50 (C1r) of 9000 nM and an IC50 (Thrombin) of 2000 nM. The “Inhibition … (%)” value ([1]; 1 × 10^-5) was 100%, the “Inhibition … (%)” value ([1]; 1 × 10^-6) was 100% and the “Inhibition … (%)” value ([1]; 1 × 10^-7) was 75%.

In the case of `CN(C)C(=N)Nc1ccc(C(=O)Oc2ccc3cc(C(=N)N)ccc3c2)cc1` [compound 9], the IC50 (Kallikrein) is reported as 900 nM, the IC50 (Trypsin) is reported as 6000 nM and the IC50 (Plasmin) is reported as 2000 nM. It also gave an IC50 (C1s) of 400 nM, an inhibition at 10 µM (C1r) of 41% and an IC50 (Thrombin) of 600 nM. The “Inhibition … (%)” value ([1]; 1 × 10^-5) was 100%, the “Inhibition … (%)” value ([1]; 1 × 10^-6) was 68% and the “Inhibition … (%)” value ([1]; 1 × 10^-7) was 8%.

For `CCCCNC(=N)Nc1ccc(C(=O)Oc2ccc3cc(C(=N)N)ccc3c2)cc1` [compound 13], the IC50 (Kallikrein) was 900 nM, the IC50 (Trypsin) was 2000 nM and the IC50 (Plasmin) was 500 nM. For the same compound, the IC50 (C1s) was 500 nM, the inhibition at 10 µM (C1r) was 46% and the IC50 (Thrombin) was 1000 nM. For the same compound, the “Inhibition … (%)” value ([1]; 1 × 10^-5) was 100%, the “Inhibition … (%)” value ([1]; 1 × 10^-6) was 78% and the “Inhibition … (%)” value ([1]; 1 × 10^-7) was 3%.

`N=C(NCCO)Nc1ccc(C(=O)Oc2ccc3cc(C(=N)N)ccc3c2)cc1` [compound 15] showed an IC50 (Kallikrein) of 1000 nM, an IC50 (Trypsin) of 2000 nM and an IC50 (Plasmin) of 2000 nM. For the same compound, the IC50 (C1s) was 900 nM, the IC50 (C1r) was 5000 nM and the IC50 (Thrombin) was 1000 nM. The “Inhibition … (%)” value ([1]; 1 × 10^-5) was 96%, the “Inhibition … (%)” value ([1]; 1 × 10^-6) was 52% and the “Inhibition … (%)” value ([1]; 1 × 10^-7) was 6%.

`N=C(N)c1ccc2cc(OC(=O)c3ccc(NC4=NCCCN4)cc3)ccc2c1` [compound 5] gave an IC50 (Kallikrein) of 500 nM, an IC50 (Trypsin) of 6000 nM and an IC50 (Plasmin) of 1000 nM. The IC50 (C1s) was 300 nM, the inhibition at 10 µM (C1r) was 41% and the IC50 (Thrombin) was 2000 nM. For the same compound, the “Inhibition … (%)” value ([1]; 1 × 10^-5) was 98%, the “Inhibition … (%)” value ([1]; 1 × 10^-6) was 83% and the “Inhibition … (%)” value ([1]; 1 × 10^-7) was 5%.

For `CCNC(=NC)Nc1ccc(C(=O)Oc2ccc3cc(C(=N)N)ccc3c2)cc1` [compound 11], the IC50 (C1s) was 200 nM, the inhibition at 10 µM (C1r) was 24% and the “Inhibition … (%)” value ([1]; 1 × 10^-5) was 100%. For the same compound, the “Inhibition … (%)” value ([1]; 1 × 10^-6) was 57% and the “Inhibition … (%)” value ([1]; 1 × 10^-7) was 0%.

`CCNC(=N)Nc1ccc(C(=O)Oc2ccc3cc(C(=N)N)ccc3c2)cc1` [compound 10] showed an IC50 (Kallikrein) of 400 nM, an IC50 (Trypsin) of 2000 nM and an IC50 (Plasmin) of 5000 nM. It also gave an IC50 (C1s) of 800 nM, an inhibition at 10 µM (C1r) of 48% and an IC50 (Thrombin) of 6000 nM. The “Inhibition … (%)” value ([1]; 1 × 10^-5) was 100%, the “Inhibition … (%)” value ([1]; 1 × 10^-6) was 86% and the “Inhibition … (%)” value ([1]; 1 × 10^-7) was 20%.

Work on `N=C(N)c1ccc2cc(OC(=O)c3ccc(Nc4ncc[nH]4)cc3)ccc2c1` [compound 7] yielded an IC50 (Kallikrein) of 4000 nM, an IC50 (Trypsin) of 600 nM and an IC50 (Plasmin) of 5000 nM. The IC50 (C1s) was 300 nM, the IC50 (C1r) was 3000 nM and the IC50 (Thrombin) was 6000 nM. The “Inhibition … (%)” value ([1]; 1 × 10^-5) was 96%, the “Inhibition … (%)” value ([1]; 1 × 10^-6) was 46% and the “Inhibition … (%)” value ([1]; 1 × 10^-7) was 4%.

In the case of `CC(=O)NCCNC(=N)Nc1ccc(C(=O)Oc2ccc3cc(C(=N)N)ccc3c2)cc1` [compound 16], the IC50 (Kallikrein) is reported as 3000 nM, the IC50 (Trypsin) is reported as 4000 nM and the IC50 (Plasmin) is reported as 900 nM. It also gave an IC50 (C1s) of 3000 nM, an inhibition at 10 µM (C1r) of 35% and an inhibition at 10 µM (Thrombin; at 1×10^-5 M, read-out: percentage inhibition, Thrombin (figure in parentheses)) of 49%. For the same compound, the “Inhibition … (%)” value ([1]; 1 × 10^-5) was 100%, the “Inhibition … (%)” value ([1]; 1 × 10^-6) was 89% and the “Inhibition … (%)” value ([1]; 1 × 10^-7) was 25%.
